Test results from patent US12491185B2, “Inhibitors of mPTP” (NRG Therapeutics Ltd, priority 2023, dated 2025).

Assays:
mPTP [1] = assay: mPTP activity assay in isolated rat brain mitochondria; format: biochemical; settings: fluorescence at 10 min timepoint
Procedure: MPTP activity was measured in brain mitochondria freshly isolated from female Sprague Dawley (250 to 300 gram) rats. Anaesthetised rats were perfused in-situ with −40 ml cold Dulbecco's Phosphate Buffered Saline (DPBS), then brains dissected and transferred into 30 ml Isolation Buffer (225 mM mannitol, 75 mM sucrose, 1 mM EGTA, adjusted to pH 7.4 with 1M NaOH). The brain was minced using tweezers and a scalpel into −5 mm pieces then transferred into a 50 ml Potterton Dounce homogenization tube on ice containing 10 ml ice-cold isolation buffer (as above with addition of Complete Protease inhibitor; 1 tablet per 50 ml buffer). Homogenisation was carried out using a teflon pestle at 1800 rpm. The slurry was centrifuged at 2000 g for 10 min at 4° C., then the supernatant centrifuged at 12,000 g for 9 min. The pellet was resuspended with a dounce homogeniser in isolation buffer as above but with the addition of 0.02% digitonin, centrifuged at 12,000 g for 11 min and finally resuspended in 5 ml modified isolation buffer (as above but with EGTA reduced to 0.1 mM).
Test compounds were prepared in 384 well polypropylene assay plates as described above for the liver mitochondria assay. A stock mitochondria/Fluo5N assay solution was prepared in 5.6 ml assay buffer (120 mM mannitol, 40 mM MOPS, 5 mM KH2PO4, 60 mM KCl, 10 mM pyruvate, 2 mM malate, 2 mM MgCl2, 20 μM ADP, 1.26 μM oligomycin A, adjusted to pH 7.4) supplemented with Fluo5N pentapotassium salt (2 μM) and 1 ml mitochondria suspension, then transferred (15 μl) into the assay plate containing test compounds and incubated for 10 min at RT. Assay plates were then transferred to a FLIPR Tetra plate reader (Molecular Devices). Dye fluorescence was then measured every 3 sec for a total of 10 min.

mPTP [2] = assay: mPTP activity (Ca2+ retention) assay in isolated rat liver mitochondria; format: biochemical; settings: examples tested by different contract research organisations, believed comparable
Outline: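 pIC50 was taken from Fluo5N fluorescence at 10 min after a 75 μM CaCl2 bolus, scaled between DMSO (0%) and 5 μM cyclosporin A (100%). Compounds, ten half-log concentrations from 30 μM to 1 nM final, sat 10 min at RT with fresh female Sprague Dawley rat liver mitochondria energized by succinate plus rotenone.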

Row | mPTP Rat brain pIC50 (mPTP [1]) | mPTP Rat liver pIC50 (mPTP [2]) | Structure (SMILES)
1 | 7.08 | 5.70 | CC(C)(CNC(=O)c1cncc(O)n1)Cc1ccccc1 [Example 12, N-(2,2-dimethyl-3-phenylpropyl)-6-hydroxypyrazine-2-carboxamide]
2 | 7.04 | 5.55 | O=C(NCC1(Cc2ccccc2)CCCC1)c1cncc(=O)[nH]1 [Example 18, N-((1-benzylcyclopentyl)methyl)-6-oxo-1,6-dihydropyrazine-2-carboxamide]
3 | 7.35 | 5.41 | Cc1ccccc1CC1(CNC(=O)c2cncc(=O)[nH]2)CCC1 [Example 19, N-((1-(2-methylbenzyl)cyclobutyl)methyl)-6-oxo-1,6-dihydropyrazine-2-carboxamide]
4 | 7.55 | 6.44 | Cn1nc(C(=O)NCC2(Cc3ccccc3F)CCC2)[nH]c1=O [Example 20, N-((1-(2-fluorobenzyl)cyclobutyl)methyl)-1-methyl-5-oxo-4,5-dihydro-1H-1,2,4-triazole-3-carboxamide]
5 | 7.37 | 6.48 | Cn1nc(C(=O)NCC(C)(C)Cc2ccccc2)[nH]c1=O [Example 31, N-(2,2-dimethyl-3-phenylpropyl)-1-methyl-5-oxo-4,5-dihydro-1H-1,2,4-triazole-3-carboxamide]
6 | 6.79 | 5.76 | CC(CNC(=O)c1nn(C)c(=O)[nH]1)Cc1ccccc1 (stereo not drawn) [Example 32, 1-methyl-N-(2-methyl-3-phenylpropyl)-5-oxo-4,5-dihydro-1H-1,2,4-triazole-3-carboxamide]
7 | 6.51 | 5.63 | Cn1nc(C(=O)NCC2(Cc3ccccc3)CC2)[nH]c1=O [Example 33, N-((1-benzylcyclopropyl)methyl)-1-methyl-5-oxo-4,5-dihydro-1H-1,2,4-triazole-3-carboxamide]
8 | 7.05 | 5.28 | Cn1nc(C(=O)NCC(C)(C)Cc2ccccc2Br)[nH]c1=O [Example 36, N-(3-(2-bromophenyl)-2,2-dimethylpropyl)-1-methyl-5-oxo-4,5-dihydro-1H-1,2,4-triazole-3-carboxamide]
9 | 7.61 | 5.79 | Cn1nc(C(=O)NCC2(Cc3ccccc3Br)CCC2)[nH]c1=O [Example 37, N-((1-(2-bromobenzyl)cyclobutyl)methyl)-1-methyl-5-oxo-4,5-dihydro-1H-1,2,4-triazole-3-carboxamide]
10 | 6.38 | 5.25 | Cn1nc(C(=O)NCC(C)(CO)Cc2ccccc2)[nH]c1=O (stereo not drawn) [Example 41, N-(2-benzyl-3-hydroxy-2-methylpropyl)-1-methyl-5-oxo-4,5-dihydro-1H-1,2,4-triazole-3-carboxamide]
11 | 6.26 | 5.27 | CC(O)C(C)(CNC(=O)c1nn(C)c(=O)[nH]1)Cc1ccccc1 (stereo not drawn) [Example 42, N-(2-benzyl-3-hydroxy-2-methylbutyl)-1-methyl-5-oxo-4,5-dihydro-1H-1,2,4-triazole-3-carboxamide]
12 | 6.91 | 4.71 | O=C(NCC1(Cc2ccccc2)CCCCC1)c1cncc(=O)[nH]1 [Example 47, N-((1-benzylcyclohexyl)methyl)-6-oxo-1,6-dihydropyrazine-2-carboxamide]

Continued, compound first:

Row | Structure (SMILES) | mPTP Rat brain pIC50 (mPTP [1]) | mPTP Rat liver pIC50 (mPTP [2])
13 | CN(CC1(Cc2ccccc2)CCC1)C(=O)c1cncc(O)n1 [Example 11, N-((1-benzylcyclobutyl)methyl)-6-hydroxy-N-methylpyrazine-2-carboxamide] | 6.48 | 5.18
14 | O=C(NCC1(Cc2ccccc2F)CCC1)c1cncc(O)n1 [Example 13, N-((1-(2-fluorobenzyl)cyclobutyl)methyl)-6-hydroxypyrazine-2-carboxamide] | 7.74 | 5.33
15 | CCn1nc(C(=O)NCC2(Cc3ccccc3)CCC2)[nH]c1=O [Example 14, N-((1-benzylcyclobutyl)methyl)-1-ethyl-5-oxo-4,5-dihydro-1H-1,2,4-triazole-3-carboxamide] | 6.94 | 5.63
16 | O=C(NCC1(Cc2c(F)cccc2F)CCC1)c1cncc(=O)[nH]1 [Example 15, N-((1-(2,6-difluorobenzyl)cyclobutyl)methyl)-6-oxo-1,6-dihydropyrazine-2-carboxamide] | 7.65 | 5.92
17 | O=C(NCC1(Cc2cccc(F)c2F)CCC1)c1cncc(=O)[nH]1 [Example 17, N-((1-(2,3-difluorobenzyl)cyclobutyl)methyl)-6-oxo-1,6-dihydropyrazine-2-carboxamide] | 6.96 | 6.05
18 | Cn1nc(C(=O)NCC2(Cc3c(F)cccc3F)CCC2)[nH]c1=O [Example 21, N-((1-(2,6-difluorobenzyl)cyclobutyl)methyl)-1-methyl-5-oxo-4,5-dihydro-1H-1,2,4-triazole-3-carboxamide] | 7.63 | 6.09
19 | CC(NC(=O)c1nn(C)c(=O)[nH]1)C1(Cc2ccccc2)CCC1 (stereo not drawn) [Example 23, N-(1-(1-benzylcyclobutyl)ethyl)-1-methyl-5-oxo-4,5-dihydro-1H-1,2,4-triazole-3 carboxamide] | 7.37 | 6.64
20 | CC(c1ccccc1)C1(CNC(=O)c2nn(C)c(=O)[nH]2)CCC1 (stereo not drawn) [Example 25, 1-methyl-5-oxo-N-((1-(1-phenylethyl)cyclobutyl)methyl)-4,5-dihydro-1H-1,2,4-triazole-3-carboxamide] | 7.37 | 6.42
21 | COC(c1ccccc1)C1(CNC(=O)c2nn(C)c(=O)[nH]2)CCC1 (stereo not drawn) [Example 28, N-((1-(methoxy(phenyl)methyl)cyclobutyl)methyl)-1-methyl-5-oxo-4,5-dihydro-1H-1,2,4-triazole-3-carboxamide] | 6.73 | 5.96
22 | Cc1ccccc1CC1(CNC(=O)c2nn(C)c(=O)[nH]2)CCC1 [Example 29, 1-methyl-N-((1-(2-methylbenzyl)cyclobutyl)methyl)-5-oxo-4,5-dihydro-1H-1,2,4-triazole-3-carboxamide] | 7.84 | 6.34
23 | Cn1nc(C(=O)NCC2(Cc3ccccc3Cl)CCC2)[nH]c1=O [Example 30, N-((1-(2-chlorobenzyl)cyclobutyl)methyl)-1-methyl-5-oxo-4,5-dihydro-1H-1,2,4-triazole-3-carboxamide] | 7.63 | 6.20
24 | CCC(NC(=O)c1nn(C)c(=O)[nH]1)C(C)(C)Cc1ccccc1 (stereo not drawn) [Example 34, N-(2,2-dimethyl-1-phenylpentan-3-yl)-1-methyl-5-oxo-4,5-dihydro-1H-1,2,4-triazole-3-carboxamide] | 7.32 | 5.82
25 | Cn1nc(C(=O)NC(C(F)(F)F)C(C)(C)Cc2ccccc2)[nH]c1=O (stereo not drawn) [Example 35, 1-methyl-5-oxo-N-(1,1,1-trifluoro-3,3-dimethyl-4-phenylbutan-2-yl)-4,5-dihydro-1H-1,2,4-triazole-3-carboxamide] | 6.86 | 5.23
26 | CC(NC(=O)c1nn(C)c(=O)[nH]1)C(C)(C)Cc1ccccc1 (stereo not drawn) [Example 38, N-(3,3-dimethyl-4-phenylbutan-2-yl)-1-methyl-5-oxo-4,5-dihydro-1H-1,2,4-triazole-3-carboxamide] | 7.30 | 6.14
27 | CCC(CNC(=O)c1nn(C)c(=O)[nH]1)Cc1ccccc1 (stereo not drawn) [Example 40, N-(2-benzylbutyl)-1-methyl-5-oxo-4,5-dihydro-1H-1,2,4-triazole-3-carboxamide] | 7.50 | 6.29
28 | COC(CNC(=O)c1nn(C)c(=O)[nH]1)Cc1ccccc1 (stereo not drawn) [Example 43, N-(2-methoxy-3-phenylpropyl)-1-methyl-5-oxo-4,5-dihydro-1H-1,2,4-triazole-3-carboxamide] | 6.81 | 5.03
29 | CCC(C)(CNC(=O)c1nn(C)c(=O)[nH]1)Cc1ccccc1 (stereo not drawn) [Example 44, N-(2-benzyl-2-methylbutyl)-1-methyl-5-oxo-4,5-dihydro-1H-1,2,4-triazole-3-carboxamide] | 7.41 | 6.23
30 | O=C(NCC1(Cc2ccccc2)CC(F)(F)C1)c1cncc(=O)[nH]1 [Example 48, N-((1-benzyl-3,3-difluorocyclobutyl)methyl)-6-oxo-1,6-dihydropyrazine-2-carboxamide] | 5.99 | 4.56
